In US12187742B2 (XRAD Therapeutics, Inc., priority 2018, dated 2025):
Where a name gives a salt, the structure may show the parent alone.

Legend:
[1] = molecular target: DNA-PK (Homo sapiens (Human), UniProt P78527); assay: DNA-PK Enzyme-Linked Immunosorbent Assay (phosphorylation of GST-p53 (1-101) peptide); type: biochemical; conditions: ELISA
Summary of the method: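 ELISA with plate-bound GST-p53 (1-101) phosphorylated by DNA-PK (0.1 μg/mL final) with 20 μM ATP for 1 h at 25 °C. Compounds tested over 10 3-fold doses from 100 nM top final. Phospho-p53 Ser15 detected by antibody, HRP and TMB, absorbance at 450 nm.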

[2] = molecular target: ATM (Homo sapiens (Human), UniProt Q13315); assay: ATM in Cell Western Assay (pKAP1 in etoposide-treated MCF-7 cells); type: cell-based
Summary of the method: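 Cells received compounds in a 10-dose, 3-fold series from a 1 μM final top concentration, then 100 μM etoposide, for 1 hr at 37° C. They were then fixed with paraformaldehyde and permeabilized with 0.1% Triton X-100. After immunostaining, plates were scanned on an infrared imager.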

[3] = MCF-7 cells, etoposide 100 μM, 1 hr, pKAP1 readout
[4] = pKAP1 in etoposide-treated MCF-7 cells

Chain of ATM (Q13315 whole entry): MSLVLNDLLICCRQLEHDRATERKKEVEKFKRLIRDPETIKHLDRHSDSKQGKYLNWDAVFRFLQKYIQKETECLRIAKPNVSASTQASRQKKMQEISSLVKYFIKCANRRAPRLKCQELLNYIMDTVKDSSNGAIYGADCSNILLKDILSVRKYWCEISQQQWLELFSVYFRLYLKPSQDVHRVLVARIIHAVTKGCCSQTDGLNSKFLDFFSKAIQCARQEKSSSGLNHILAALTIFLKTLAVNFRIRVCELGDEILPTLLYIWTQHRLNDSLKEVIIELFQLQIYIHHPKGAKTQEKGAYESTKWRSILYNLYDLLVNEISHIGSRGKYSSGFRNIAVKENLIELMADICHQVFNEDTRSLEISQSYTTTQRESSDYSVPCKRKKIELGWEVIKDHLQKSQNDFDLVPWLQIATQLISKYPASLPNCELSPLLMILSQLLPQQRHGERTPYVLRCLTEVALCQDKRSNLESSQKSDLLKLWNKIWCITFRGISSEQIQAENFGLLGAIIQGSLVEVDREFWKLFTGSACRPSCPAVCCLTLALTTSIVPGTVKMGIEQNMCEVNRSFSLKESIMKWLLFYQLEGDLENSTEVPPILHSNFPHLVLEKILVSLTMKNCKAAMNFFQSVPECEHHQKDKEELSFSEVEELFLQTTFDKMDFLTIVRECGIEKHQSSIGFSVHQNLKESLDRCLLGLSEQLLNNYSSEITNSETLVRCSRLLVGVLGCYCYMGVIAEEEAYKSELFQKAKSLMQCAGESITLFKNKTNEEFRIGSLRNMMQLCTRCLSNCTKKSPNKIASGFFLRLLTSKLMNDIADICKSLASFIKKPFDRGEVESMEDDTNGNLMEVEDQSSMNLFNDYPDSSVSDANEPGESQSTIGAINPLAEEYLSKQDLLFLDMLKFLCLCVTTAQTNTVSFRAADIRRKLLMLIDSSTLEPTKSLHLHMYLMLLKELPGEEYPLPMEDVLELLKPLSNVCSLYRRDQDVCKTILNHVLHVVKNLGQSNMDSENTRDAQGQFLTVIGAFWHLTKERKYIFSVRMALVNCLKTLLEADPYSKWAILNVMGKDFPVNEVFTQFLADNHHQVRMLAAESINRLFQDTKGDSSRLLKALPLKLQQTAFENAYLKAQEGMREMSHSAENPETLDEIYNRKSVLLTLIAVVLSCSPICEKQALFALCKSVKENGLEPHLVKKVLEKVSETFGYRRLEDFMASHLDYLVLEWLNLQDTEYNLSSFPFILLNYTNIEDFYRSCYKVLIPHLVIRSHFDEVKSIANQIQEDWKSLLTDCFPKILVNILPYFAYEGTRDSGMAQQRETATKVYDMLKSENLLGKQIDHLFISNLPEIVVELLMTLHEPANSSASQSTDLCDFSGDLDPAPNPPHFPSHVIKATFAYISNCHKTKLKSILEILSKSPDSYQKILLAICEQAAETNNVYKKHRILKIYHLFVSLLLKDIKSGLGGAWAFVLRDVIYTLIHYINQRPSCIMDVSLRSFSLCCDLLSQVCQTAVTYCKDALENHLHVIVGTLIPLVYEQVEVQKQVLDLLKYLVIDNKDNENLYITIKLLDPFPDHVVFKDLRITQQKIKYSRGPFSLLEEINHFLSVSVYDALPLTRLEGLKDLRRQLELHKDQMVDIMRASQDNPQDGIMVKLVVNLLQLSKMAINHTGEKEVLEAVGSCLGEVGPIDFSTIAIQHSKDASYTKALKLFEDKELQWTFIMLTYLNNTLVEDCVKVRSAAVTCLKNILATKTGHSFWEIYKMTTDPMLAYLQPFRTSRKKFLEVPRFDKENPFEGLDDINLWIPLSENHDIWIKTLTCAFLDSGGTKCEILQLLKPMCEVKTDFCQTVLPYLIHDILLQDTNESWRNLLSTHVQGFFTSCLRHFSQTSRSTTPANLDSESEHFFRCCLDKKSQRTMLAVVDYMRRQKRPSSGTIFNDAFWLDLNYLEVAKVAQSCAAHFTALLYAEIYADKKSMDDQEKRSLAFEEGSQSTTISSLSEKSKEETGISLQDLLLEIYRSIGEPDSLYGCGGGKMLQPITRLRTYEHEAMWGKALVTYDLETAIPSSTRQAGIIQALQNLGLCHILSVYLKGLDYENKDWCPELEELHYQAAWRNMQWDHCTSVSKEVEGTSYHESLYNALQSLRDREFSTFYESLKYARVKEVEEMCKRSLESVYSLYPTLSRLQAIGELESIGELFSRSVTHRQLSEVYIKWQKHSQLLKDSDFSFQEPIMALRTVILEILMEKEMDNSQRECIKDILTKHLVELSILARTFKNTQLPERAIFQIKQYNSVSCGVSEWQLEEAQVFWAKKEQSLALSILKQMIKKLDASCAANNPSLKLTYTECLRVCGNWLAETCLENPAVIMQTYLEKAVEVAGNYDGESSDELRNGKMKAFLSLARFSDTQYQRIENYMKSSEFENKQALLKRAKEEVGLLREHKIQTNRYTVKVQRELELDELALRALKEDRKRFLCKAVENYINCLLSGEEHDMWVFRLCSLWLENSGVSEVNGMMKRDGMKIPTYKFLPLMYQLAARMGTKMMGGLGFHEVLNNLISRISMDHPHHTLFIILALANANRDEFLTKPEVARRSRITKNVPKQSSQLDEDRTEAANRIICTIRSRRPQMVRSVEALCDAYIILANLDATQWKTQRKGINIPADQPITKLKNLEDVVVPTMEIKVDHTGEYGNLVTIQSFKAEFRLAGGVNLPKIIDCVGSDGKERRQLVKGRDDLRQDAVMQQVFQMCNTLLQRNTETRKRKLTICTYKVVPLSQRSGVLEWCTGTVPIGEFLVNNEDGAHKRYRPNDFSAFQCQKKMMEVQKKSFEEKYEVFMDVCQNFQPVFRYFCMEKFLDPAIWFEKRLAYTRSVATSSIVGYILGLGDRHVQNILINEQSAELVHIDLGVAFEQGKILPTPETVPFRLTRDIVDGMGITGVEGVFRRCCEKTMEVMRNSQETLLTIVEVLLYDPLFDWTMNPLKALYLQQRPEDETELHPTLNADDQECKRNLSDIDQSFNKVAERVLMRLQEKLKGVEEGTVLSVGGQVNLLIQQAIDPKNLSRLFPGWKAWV

IC50 ([1]; ATP 20 μM) | IC50 [2, 3] | IC50 ([1]; 20 μM ATP) | IC50 [2, 4] | SMILES
< 0.5 nM | 0.5 to 1 nM |  |  | CN1C(=O)C2(CC2)c2c1cnc1ccc(-c3cnc(OCCCN4CCCCC4)c(NS(=O)(=O)c4ccccc4)c3)cc21 [Example 67, N-(5-(3′-Methyl-2′-oxo-2′,3′-dihydrospiro[cyclopropane-1,1′-pyrrolo[2,3-c]quinolin]-8′-yl)-2-(3-(piperidin-1-yl)propoxy)pyridin-3-yl)benzenesulfonamide]
< 0.5 nM | 1 to 100 nM |  |  | CCc1ncc(S(=O)(=O)Nc2cc(-c3ccc4ncc5c(c4c3)C3(CCC3)C(=O)N5C)cnc2OCCCN(C)C)s1 [Example 245, N-(2-(3-(Dimethylamino)propoxy)-5-(3′-methyl-2′-oxo-2′,3′-dihydrospiro [cyclobutane-1,1′-pyrrolo [2,3-c]quinolin]-8′-yl)pyridin-3-yl)-2-ethylthiazole-5-sulfonamide]
< 0.5 nM | 1 to 100 nM |  |  | CN(C)CCCOc1ncc(-c2ccc3ncc4c(c3c2)C2(CC2)C(=O)N4C)cc1NS(=O)(=O)c1cc(Cl)cc(Cl)c1 [Example 125, 3.5-Dichloro-IN-(2-(3-(dimethylamino)propoxy)-5-(3′-methyl-2′-oxo-2′,3′-dihydrospiro[cyclopropane-1,1′-pyrrolo[2,3-c]quinolin]-8′-yl)pyridin-3-yl)benzenesulfonamide]
 |  | 1 to 100 nM | 1 to 100 nM | CO[C@H]1C[C@]2(C1)C(=O)N(C)c1cnc3cc(F)c(-c4cnc(N5CCC(N6CCCCC6)CC5)c(NS(C)(=O)=O)c4)cc3c12 [Example 391, cis-N-(2-([1,4′-Bipiperidin]-1′-yl)-5-(7′-fluoro-3-methoxy-3′-methyl-2′-oxo-2′,3′-dihydrospiro[cyclobutane-1,1′-pyrrolo[2,3-c]quinolin]-8′-yl)pyridin-3-yl)methanesulfonamide]
 |  | < 0.5 nM | 1 to 100 nM | CC(C)NCCOc1ncc(-c2cc3c(cc2F)ncc2c3[C@]3(C[C@H](N(C)c4ccccc4)C3)C(=O)N2C)cc1NS(C)(=O)=O [Example 463, cis-N-(5-(7′-Fluoro-3′-methyl-3-(methyl(phenyl)amino)-2′-oxo-2′,3′-dihydrospiro[cyclobutane-1,1′-pyrrolo[2,3-c]quinolin]-8′-yl)-2-(2-(isopropylamino)ethoxy)pyridin-3-yl)methanesulfonamide]
1 to 100 nM | 1 to 100 nM |  |  | CN1C(=O)C2(CC2)c2c1cnc1ccc(-c3cnc(N4CCC(N5CCCCC5)CC4)c(NS(=O)(=O)c4ccccc4)c3)cc21 [Example 213, N-(2-([1,4′-Bipiperidin]-1′-yl)-5-(3′-methyl-2′-oxo-2′,3′-dihydrospiro[cyclopropane-1,1′-pyrrolo[2,3-c]quinolin]-8′-yl)pyridin-3-yl)benzenesulfonamide methanesulfonate]
1 to 100 nM | 1 to 100 nM |  |  | CN1C(=O)C2(CCC2)c2c1cnc1cc(F)c(-c3cnc(N4CC(N(C)C)C4)c(NS(C)(=O)=O)c3)cc21 [Example 317, N-(2-(3-(Dimethylamino)azetidin-1-yl)-5-(7′-fluoro-3′-methyl-2′-oxo-2′,3′-dihydrospiro[cyclobulane-1,1′-pyrrolo[2,3-c]quinolin]-8′-yl)pyridin-3-yl)methanesulfonamide hydrochloride]
< 0.5 nM | 1 to 100 nM |  |  | Cc1ncc(-c2ccc3ncc4c(c3c2)C2(CC2)C(=O)N4C)cc1NS(=O)(=O)c1ccccc1 [Example 24, N-(2-Methyl-5-(3′-methyl-2′-oxo-2′,3′-dihydrospiro[cyclopropane-1,1′-pyrrolo[2,3-c]quinolin]-8′-yl)pyridin-3-yl)benzenesulfonamide]
1 to 100 nM | 1 to 100 nM |  |  | CN(C)CCCOc1ccc(-c2ccc3ncc4c(c3c2)C2(CC2)C(=O)N4C)cc1NS(=O)(=O)c1cccc(Cl)c1 [Example 98, 3-Chloro-N-(2-(3-(dimethylamino)propoxy)-5-(3′-methyl-2′-oxo-2′,3′-dihydrospiro[cyclopropane-1,1′-pyrrolo[2,3-c]quinolin]-8′-yl)phenyl) benzenesulfonamide]
